pIC50: −log10 of the molar value.

This assay deals with T1, human 5-HT4 receptor (Homo sapiens, UniProt Q13639).
T1 construct: expressed in transfected cells; host or cells: COS-7
T1 sequence (Q13639 whole entry): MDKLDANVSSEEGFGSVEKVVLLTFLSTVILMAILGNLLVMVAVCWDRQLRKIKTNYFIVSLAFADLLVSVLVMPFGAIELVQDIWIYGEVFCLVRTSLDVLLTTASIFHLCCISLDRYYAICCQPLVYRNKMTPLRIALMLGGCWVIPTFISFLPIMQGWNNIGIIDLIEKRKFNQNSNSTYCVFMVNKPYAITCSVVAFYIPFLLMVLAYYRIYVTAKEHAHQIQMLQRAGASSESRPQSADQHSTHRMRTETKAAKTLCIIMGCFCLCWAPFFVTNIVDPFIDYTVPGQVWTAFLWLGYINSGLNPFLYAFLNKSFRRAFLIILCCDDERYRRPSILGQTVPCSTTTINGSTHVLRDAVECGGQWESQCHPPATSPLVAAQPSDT
Nature of the assay: Binding affinity of compounds for 5-HT4 receptor (radioligand displacement, membrane lysates of COS-7 cells). To be noted: inhibition of specific binding of 0.595 nM [H3]-AGR113808; COS-7 cell membrane lysates expressing human 5-HT4 receptor. Here is the method: For this purpose, COS-7 cells expressing the human 5-HT4 receptor were constructed and lysed to obtain cell membrane lysates which were then used in binding assay experiments. For binding assay, the membrane lysates were mixed and incubated with different concentrations of test materials and [H3]-AGR113808. […] After incubation was completed, the reaction products were collected in a GF/B glass fiber filter using a Packard cell harvester, and the bound radioactivity was then determined using a liquid cell scintillation counter (Packard TopCount NXT™, Perkin Elmer). Specific binding of the radioligand to the 5-HT4 receptor was calculated by subtracting the non-specific binding of the radioligand from the total radioligand binding. IC50 was calculated from % inhibition of specific binding of the radioligand to the 5-HT4 receptor, with respect to varying concentrations of the test materials.
A general note: In a radioligand displacement assay an active substance lowers the binding of a labelled ligand.
For `COc1cc(N)c(Cl)cc1C(=O)N[C@H]1CCN(CC2CCN(C(=S)C(C)(C)C)CC2)C[C@H]1OC` (relative stereo) [Compound 38, cis-4-amino-5-chloro-N-[1-((1-(2,2-dimethylpropanethioyl)piperidin-4-yl)methyl)-3-methoxypiperidin-4-yl]-2-methoxybenzamide], the negative-log IC50 (pIC50) – broadly, −log10 of the IC50, conventionally taken in molar units – is 6.66.
Turning to `CCSC(=O)N1CCC(CN2CC[C@H](NC(=O)c3cc(Cl)c(N)cc3OC)[C@H](OC)C2)CC1` (relative stereo) [Compound 39, S-ethyl 4-[(cis-4-(4-amino-5-chloro-2-methoxybenzamido)-3-methoxypiperidin-1-yl)methyl]piperidine-1-carbothioate], the pIC50 is 7.33.
As for `COc1cc(N)c(Cl)cc1C(=O)N[C@H]1CCN(CCCCCC(=O)Nc2ccc3[nH]ccc3c2)C[C@H]1OC` (relative stereo) [Compound 62, cis-4-amino-5-chloro-N-[1-(6-oxo-6-(1H-indol-5-ylamino)hexyl)-3-methoxypiperidin-4-yl]-2-methoxybenzamide], the figure is 7.36; as for `CCCC(C)C(=O)N1CCC(CN2CC[C@H](NC(=O)c3cc(Cl)c(N)cc3OC)[C@H](OC)C2)CC1` (relative stereo) [Compound 24, cis-4-amino-5-chloro-N-[1-((1-(2-methylpentanoyl)piperidin-4-yl)methyl)-3-methoxypiperidin-4-yl]-2-methoxybenzamide], 7.24.
On to `COC(=O)N1CCC(CN2CC[C@H](NC(=O)c3cc(Cl)c(N)cc3OC)[C@H](OC)C2)CC1` (relative stereo) [Compound 5, methyl 4-[(cis-4-(4-amino-5-chloro-2-methoxybenzamido)-3-methoxypiperidin-1-yl)methyl]piperidine-1-carboxylate], for which the pIC50 was 6.89.
For the compound `COc1cc(N)c(Cl)cc1C(=O)N[C@H]1CCN(CC2CCN(C(=O)OCC(C)C)CC2)C[C@H]1OC` (relative stereo) [Compound 9, isobutyl 4-[(cis-4-(4-amino-5-chloro-2-methoxybenzamido)-3-methoxypiperidin-1-yl)methyl]piperidine-1-carboxylate], the pIC50 was 6.97.
As for `COc1cc(N)c(Cl)cc1C(=O)N[C@H]1CCN(CCC(=O)Nc2ccc3ncccc3c2)C[C@H]1OC` (relative stereo) [Compound 57, cis-4-amino-5-chloro-N-[1-(3-oxo-3-(quinolin-6-ylamino)propyl)-3-methoxypiperidin-4-yl]-2-methoxybenzamide], the figure is 7.28.
As for `CCOC(=O)N1CCC(CCN2CC[C@H](NC(=O)c3cc(Cl)c(N)cc3OC)[C@H](OC)C2)CC1` (relative stereo) [Compound 3, ethyl 4-[2-(cis-4-(4-amino-5-chloro-2-methoxybenzamido)-3-methoxypiperidin-1-yl)ethyl]piperidine-1-carboxylate], the figure is 6.82.
`COc1cc(N)c(Cl)cc1C(=O)N[C@H]1CCN(CC2CCN(C(=O)CCC(C)C)CC2)C[C@H]1OC` (relative stereo) [Compound 27, cis-4-amino-5-chloro-N-[1-((1-(4-methylpentanoyl)piperidin-4-yl)methyl)-3-methoxypiperidin-4-yl]-2-methoxybenzamide] showed a pIC50 of 7.05.
With `COc1cc(N)c(Cl)cc1C(=O)N[C@H]1CCN(CC2CCN(C(=O)OC(C)C)CC2)C[C@H]1OC` (relative stereo) [Compound 8, isopropyl 4-[(cis-4-(4-amino-5-chloro-2-methoxybenzamido)-3-methoxypiperidin-1-yl)methyl]piperidine-1-carboxylate], the pIC50 is 6.89.
In turn, `CCCCC(=O)N1CCC(CN2CC[C@H](NC(=O)c3cc(Cl)c(N)cc3OC)[C@H](OC)C2)CC1` (relative stereo) [Compound 22, cis-4-amino-5-chloro-N-[1-((1-pentanoylpiperidin-4-yl)methyl)-3-methoxypiperidin-4-yl]-2-methoxybenzamide] showed a pIC50 of 7.14.

These data come from US20100105727A1, “NOVEL BENZAMIDE DERIVATIVES AND PROCESS FOR THE PREPARTION THEREOF” (DONG-A-PHARM. CO., LTD., priority 2007, published 2010).
